# Laboratory results taken from patent publication US20260355171A1, “INHIBITORS AND USES THEREFOR” (priority 2022, published 2026).
# Key:
# [1] = tested on: Omicron variant of SARS-CoV-2
# [2] = tested on: Delta variant of SARS-CoV-2
smiles,measurement,setting,value
NC(=O)C1CCN(c2ncccc2CNCc2cccc3[nH]ccc23)CC1 [Compound 22],Titre of Omicron variant,[1],Significant reduction of titres
same,Titre of Delta variant,[2],Significant reduction of titres
